# Assay results reported in patent US12226400B2, “Neuroprotective disruption of Kv2.1/syntaxin interaction by small molecules” (UNIVERSITY OF PITTSBURGH-OF THE COMMONWEALTH SYSTEM OF …, priority 2018, dated 2025).
# Tests used:
# [1] = tested on: primary rat cortical neuron cultures; assay: LDH toxicity assay screening for innate toxicity; format: cell-based; settings: up to 30 μM for 24 hr
# munc18/syntaxin 1A = biological target: T1, munc18/syntaxin 1A (Homo sapiens, UniProt Q16623); assay: Co-immunoprecipitation of munc18 and syntaxin in transfected HEK293 cells; format: cell-based; settings: mean±SEM
# T1 construct: syntaxin 1A plasmid a gift RC204873; host or cells: HEK293
# Protocol: Western Blot. Co-immunoprecipitation of munc18 and syntaxin was carried out using PEI transfection of HEK293 cells (American Type Culture Collection) plated and maintained in DMEM medium with 10% FBS and penicillin/streptomycin. 24 hr prior to transfection, HEK293 cells are plated onto 150 mm petri dishes from confluent T75 flasks at the ratio of 2/3 flask per plate. 24 hr after plating, PEI transfection was carried out by mixing 25% munc18 (OriGene RC204873), 25% syntaxin 1A (gift from Raymond A Frizzell, Children's Hospital of Pittsburgh), and 50% pcDNA3 (Invitrogen) plasmids ([…] total plasmids with 500 μl medium without penicillin/streptomycin, and 110 μl PEI at 1 mg/ml). The PEI was lastly added to the mixture drop-wise to avoid clumping of the DNA precipitates. This transfection reagent was allowed to incubate in room temperature for at least 5 min. The HEK293 medium was replaced with medium without penicillin/streptomycin prior to the addition of the transfection mixture. At 24 hr after transfection, the transfection medium was replaced with regular medium containing either cpd5 or DMSO. The cells were lysed and protein was harvested 24 hr after cpd5/DMSO treatment using 200 μl NP40 buffer (Invitrogen) containing phenylmethylsulfonyl fluoride (PMSF, Sigma-Aldrich) and protease inhibitor cocktail (¼ tablet, cOmplete Mini, EDTA-free, Sigma-Aldrich). The resulting HEK293 sample was immunoprecipitated using mouse anti-syntaxin 1A antibody (abeam). The western blot was probed using the Biogen system with the same syntaxin 1A antibody and mouse anti-Flag (Sigma-Aldrich) used for the detection of munc18. Quantification of protein pulldown was normalized to the syntaxin signal before comparisons. SDS-PAGE in this study are run in 10% acrylamide. Small variations in band separation are caused by the semi-wet transfer method.
# T1 sequence (Q16623 whole entry, species assumed): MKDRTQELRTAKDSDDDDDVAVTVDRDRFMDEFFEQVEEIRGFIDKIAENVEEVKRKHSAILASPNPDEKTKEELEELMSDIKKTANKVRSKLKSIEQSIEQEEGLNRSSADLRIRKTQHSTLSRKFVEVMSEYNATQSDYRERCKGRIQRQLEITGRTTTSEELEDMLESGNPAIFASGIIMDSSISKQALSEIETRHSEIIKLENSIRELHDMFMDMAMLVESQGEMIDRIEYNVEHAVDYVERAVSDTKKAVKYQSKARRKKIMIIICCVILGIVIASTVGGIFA
smiles,measurement,setting,value
"COc1ccc(CNC(=O)Nc2cccc(-c3nc4ccccc4s3)c2)cc1OC [cpd5, 3-[3-(1,3-benzothiazol-2-yl)phenyl]-1-[(3,4-dimethoxyphenyl)methyl]urea]",innate toxicity (LDH),[1],no innate toxicity
same,innate toxicity (LDH),[1]; listed as Cpd5,No neurotoxicity was observed
same,"munc18 co-immunoprecipitated with syntaxin, cpd5/DMSO","munc18/syntaxin 1A; 10 μM cpd5, 24 hr",1.032±0.034
same,"munc18 co-immunoprecipitated with syntaxin, cpd5/DMSO","munc18/syntaxin 1A; 30 μM cpd5, 24 hr",0.4459±0.09367
same,"munc18 co-immunoprecipitated with syntaxin, cpd5/DMSO","munc18/syntaxin 1A; 100 μM cpd5, 24 hr",0.4339±0.135
